Assay results as given in the CheMixHub ionic liquid set.

Assay: xn = mol fraction of the nth substance listed
Conditions: 100 kPa

OC[C@H]1O[C@H](O[C@H]2[C@H](O)[C@@H](O)C(O)O[C@@H]2CO)[C@H](O)[C@@H](O)[C@@H]1O (stereo not given in full) + CCCC[n+]1ccn(C)c1.F[P-](F)(F)(F)(F)F + O
viscosity [mPa·s]
Conditions | 293.15 K | 298.15 K | 303.15 K | 308.15 K | 313.15 K
x2 = 0, x1 = 0.0001791 | 1.019 | 0.9 | 0.807 | 0.721 | 0.657
x2 = 0, x1 = 0.0005383 | 1.027 | 0.911 | 0.816 | 0.733 | 0.667
x2 = 0, x1 = 0.0008971 | 1.038 | 0.922 | 0.827 | 0.742 | 0.675
x2 = 0, x1 = 0.001255 | 1.049 | 0.931 | 0.832 | 0.747 | 0.68
x2 = 0, x1 = 0.001615 | 1.059 | 0.94 | 0.84 | 0.755 | 0.686
x2 = 0.0001835, x1 = 0.001259 | 1.059 | 0.947 | 0.86 | 0.775 | 0.69
x2 = 0.0001835, x1 = 0.00162 | 1.07 | 0.956 | 0.866 | 0.782 | 0.696
x2 = 0.0001836, x1 = 0.0008988 | 1.049 | 0.937 | 0.851 | 0.768 | 0.684
x2 = 0.0001837, x1 = 0.0001798 | 1.03 | 0.92 | 0.834 | 0.751 | 0.667
x2 = 0.0001837, x1 = 0.0005398 | 1.037 | 0.926 | 0.841 | 0.76 | 0.676
x2 = 0.0005376, x1 = 0.001627 | 1.084 | 0.97 | 0.873 | 0.783 | 0.709
x2 = 0.0005378, x1 = 0.001265 | 1.074 | 0.96 | 0.864 | 0.776 | 0.702
x2 = 0.000538, x1 = 0.0009039 | 1.064 | 0.949 | 0.856 | 0.769 | 0.695
x2 = 0.0005382, x1 = 0.0005419 | 1.052 | 0.939 | 0.846 | 0.76 | 0.688
x2 = 0.0005384, x1 = 0.0001809 | 1.043 | 0.93 | 0.837 | 0.752 | 0.68
x2 = 0.0008951, x1 = 0.001637 | 1.098 | 0.976 | 0.878 | 0.792 | 0.713
x2 = 0.0008955, x1 = 0.001273 | 1.089 | 0.967 | 0.869 | 0.784 | 0.707
x2 = 0.0008958, x1 = 0.0009101 | 1.08 | 0.959 | 0.861 | 0.778 | 0.701
x2 = 0.0008961, x1 = 0.0005458 | 1.064 | 0.946 | 0.851 | 0.768 | 0.693
x2 = 0.0008964, x1 = 0.0001816 | 1.057 | 0.938 | 0.842 | 0.761 | 0.685
x2 = 0.00126, x1 = 0.0009162 | 1.084 | 0.969 | 0.876 | 0.79 | 0.708
x2 = 0.00126, x1 = 0.001282 | 1.096 | 0.979 | 0.883 | 0.797 | 0.714
x2 = 0.00126, x1 = 0.001648 | 1.106 | 0.989 | 0.893 | 0.804 | 0.721
x2 = 0.001261, x1 = 0.000183 | 1.061 | 0.948 | 0.858 | 0.774 | 0.693
x2 = 0.001261, x1 = 0.0005491 | 1.071 | 0.959 | 0.866 | 0.781 | 0.7
